Data on two compounds can be found in patent US8604216B2, “Desferrithiocin derivatives and methods of use thereof” (University of Florida Research Foundation, Inc., priority 2003, dated 2013).

For series [1], the system named is iron-overloaded Cebus apella monkeys. The series is described as follows: Iron clearance in iron-overloaded Cebus apella monkeys. The format is in vivo. The note with it: oral. The method, then:
(S)-2-(4′,5′-dimethoxyphenyl)-4-methylthiazoline-4-carboxylic acid (2) was administered to iron-overloaded Cebus apella monkeys. The protocol can be found in Bergeron, R. J. et al., “Methoxylatoin of Desazadesferrithiocin Analogues: Enhanced Iron Clearing Efficiency,” J Med Chem. 46:1470-1477 (2003), the contents of which are incorporated herein by reference. Briefly, the monkeys were iron overloaded with iron dextran administered intravenously to result in an iron loading of about 500 mg per kg of body weight. At least 20 half-lives, 60 days, elapsed before the animals were used in experiments evaluating iron chelators. The iron chelator was solubilized in 40% Cremophor RH-40/water (v/v) and were administered orally to the monkeys. Fecal and urine samples were collected at 24 hour intervals beginning 4 days prior to the administration of an iron chelator and continued for 5 days after the chelator was administered. Iron concentrations in stool and urine were determined by flame atomic absorption spectroscopy. Iron chelator efficiency was calculated by dividing the net iron clearance [total iron excretion (stool plus urine) minus background] by the theoretical iron clearance and multiplying by 100. The theoretical clearance of the iron chelator was generated on the basis of a 2:1 ligand/iron complex. At a dose of 114.2 μmol/kg, the efficiency of 2 was calculated to be 14.8±2.9%. […] Approximately 20% of the iron was excreted in the urine, while the majority (approximately 80%) was eliminated in the feces. In a separate experiment, 2 was administered to iron overloaded Cebus apella at a dose of 150 μmol/kg. In this experiment, the iron clearing efficiency was calculated to be 16.1±4.1%. This efficiency was within error of the lower dose of 2 […].

Series [2] concerns non-iron overloaded, fasted rats. Description: Iron clearance in bile duct-cannulated rats. The format is in vivo. As to conditions: male Sprague-Dawley rats. The method, then:
(S)-2-(4′,5′-dimethoxyphenyl)-4-thiazoline-4-carboxylic acid (1) was administered to non-iron overloaded, fasted rats that had been subjected to routine bile duct cannulation. Briefly, male Sprague-Dawley rats averaging 450 g were housed in Nalgene plastic metabolic cages during the experimental period and given free access to water. The animals were anesthetized using sodium pentobarbital (55 mg/kg) administered intraperitoneally. The bile duct was cannulated using 22-gauge polyethylene tubing. The cannula was inserted into the duct about 1 cm from the duodenum and tied snugly in place. After threading through the shoulder, the cannula was passed from the rat to the swivel inside a metal torque-transmitting tether, which was attached to a rodent jacket around the animal's chest. The cannula was directed from the rat to a Gilson microfraction collector (Middleton, Wis.) by a fluid swivel mounted above the metabolic cage. Bile samples were collected at 3 hour intervals for 24 hours. The urine sample was taken at 24 hours and handling was as previously described in Bergeron, R. J., et al., J Med Chem. 34:2072-2078 (1991), the contents of which are incorporated herein by reference.

Turning to `COc1ccc(C2=N[C@@](C)(C(=O)O)CS2)cc1OC` [Compound 2, (S)-2-(4′,5′-dimethoxyphenyl)-4-methylthiazoline-4-carboxylic acid], the “share of iron eliminated in the feces” value in series [1] (114.2 μmol/kg) was “approximately 80%”. Besides, in series [1] (114.2 μmol/kg), the “share of iron excreted in the urine” value is “Approximately 20%”. The iron clearing efficiency in series [1] (114.2 μmol/kg, in 40% Cremophor RH-40/water, stool plus urine iron minus background vs theoretical 2:1 ligand/iron complex) is 14.8±2.9%; in series [1] (150 μmol/kg, separate experiment) it was 16.1±4.1%.
With `COc1ccc([C@H]2NC(C(=O)O)=CS2)cc1OC` [Compound 1, (S)-2-(4′,5′-dimethoxyphenyl)-4-thiazoline-4-carboxylic acid], the tolerability result in series [2] was “tolerated the drug well”. Further, in series [2] (bile collected for 24 hours, urine at 24 hours), the “efficiency of iron excretion” value is recorded as “less than 0.5%”.
